What all share (experiment): NCI anticancer screen, dose series, 48 h
Assay [1] deals with 786-0 renal.
The test system of assay [2] is CCRF-CEM leukemia.
The subject of assay [3] is TK-10 renal.
In assay [4] the test system is EKVX NSCLC.
Assay [5] concerns HCC-2998 colon.
Assay [6] relates to SN12C renal.
Assay [7] deals with SW-620 colon.
In assay [8] the test system is NCI-H460 lung.
For assay [9], the system named is OVCAR-8 ovarian.

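A five-concentration, 48-hour dose response in 96-well plates underlies each endpoint, interpolated linearly between surrounding concentrations. GI50: concentration for 50% inhibition of growth. TGI denotes the concentration required for complete inhibition of growth.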

`CN1C/C(=C\c2ccccc2)C2=NN(C(N)=S)[C@H](c3ccccc3)[C@@H]2C1`: the TGI in [1], in assay [2], in assay [3], in [4], in assay [5] and in assay [6] was more than 100 µM in each case. For the same compound, the TGI in [7] and in assay [8] was more than 100 µM in each case.
`CCN(CC)C(=O)Cc1[nH][nH]c(=O)c1C(=O)N(CC)CC`: the TGI in assay [1], in assay [2], in assay [3], in [4], in assay [5] and in [6] was more than 100 µM throughout. In addition, the TGI in assay [7], in [8] and in assay [9] was more than 100 µM throughout.
`COc1ccc2nc(-c3ccc(N)cc3)sc2c1`: the TGI in assay [1], in assay [2], in assay [3], in assay [4], in assay [5] and in assay [7] was more than 100 µM throughout. Besides, the TGI in assay [8] and in assay [9] was more than 100 µM in each case.
Regarding `CCOC(=O)CN(CC)C(=O)NC12CC3CC(CC(C3)C1)C2`, the TGI is 631 µM in assay [2]; more than 422 µM in assay [4]; 700 µM in assay [5]; more than 750 µM in assay [6]; more than 750 µM in assay [7]; 558 µM in assay [8]. Besides, the TGI in assay [9] was more than 750 µM.
With `CCCC(O)c1ccc2[nH]c3c(C)cc([N+](=O)[O-])c(C)c3c2c1` (centres undefined), the TGI in assay [1], in assay [2], in assay [3], in [4], in [5] and in assay [6] was more than 100 µM in each case. For the same compound, the TGI in [7], in [8] and in assay [9] was more than 100 µM throughout.
For the compound `COC(OC)c1cccc2c1C(=O)CCC1(CC2)OCCCCO1`, the TGI in assay [1], in assay [2], in assay [3], in [5], in [6] and in [7] was more than 100 µM throughout. Also, the TGI in assay [8] and in [9] was more than 100 µM in each case.
For `COc1ccc(N2C(=O)[C@@H]3[C@@H]4CC(C)CC[C@@H]4c4c([nH]c5ccccc45)[C@@H]3C2=O)cc1` (some centres undefined), the TGI was 20.6 µM in [1]; more than 100 µM in assay [2]; 45.6 µM in [3]; more than 100 µM in [4]; more than 100 µM in [5]; 32.5 µM in assay [6]. Also, the TGI in assay [7] was found to be 47.7 µM; in [8], 59.3 µM; in assay [9], 40.1 µM.
Turning to `CCCOC(=O)CCC(NC(=O)c1ccc(Nc2nc3ccccc3nc2-c2cccs2)cc1)C(=O)OCCC` (centres undefined), the TGI in [2], in [3], in [4], in [5], in assay [6] and in assay [7] was more than 100 µM each time. In [9], this compound came in with a TGI of more than 100 µM.
Turning to `COC1=CC(=O)[C@@]2(C)C(C)[C@H](c3ccccc3)[C@H]2C1=O` (some centres undefined), the TGI in assay [1], in [2], in assay [3], in assay [4], in assay [5] and in assay [7] was more than 100 µM each time. The TGI in assay [8] and in assay [9] was more than 100 µM each time.
Consider `O=S(c1ccc(O)cc1)c1ccc(O)cc1`, for which the TGI in assay [1], in [2], in assay [3], in assay [4], in assay [5] and in [7] was more than 100 µM throughout. Further, in assay [8], the TGI is more than 100 µM.
As for `CC(=O)OC1CCC2(C)C(CCC3C2CCC2(C)C(c4ccc(=O)oc4)C(OC(C)=O)CC32O)C1` (centres undefined), the TGI in assay [2] worked out at 0.0556 µM; in assay [4], 0.0279 µM; in [5] it was 0.153 µM; in assay [6], 0.503 µM; in assay [7], 0.0593 µM; in assay [8] it was 0.0197 µM. The compound also gave a TGI in assay [9] of 0.0951 µM.
For the compound `C=CC[PH+](c1ccccc1)c1ccccc1.C=CC[PH+](c1ccccc1)c1ccccc1.[Pt+2].[S-]c1nc2ccccc2[nH]1.[S-]c1nc2ccccc2[nH]1`, the values for the GI50 in [2], in assay [3] and in assay [4] were 1.9 µM, 3.29 µM and 2.36 µM, respectively. Further, the TGI in [2] is more than 100 µM; in assay [3], 67.4 µM; in [4], more than 100 µM.
Regarding `O=C1C=C2SC3C[C@@]24CC1(O)[N+]1=c2c4c(c(O)c4c2=C(C=N4)CC1)N3`, the TGI in assay [2] is 2.03 µM; in assay [4], 40.9 µM; in assay [6], 2 µM; in assay [7], 0.809 µM; in [8] it was 4.26 µM; in assay [9], 3.63 µM.

(Values after PubChem BioAssay (NCI).)
